Where two headings read alike, the source gives them in different places.
Key:
GLP-1R = GLP-1R (Homo sapiens, UniProt P43220); assay: GLP-1R activation: cAMP increase in CHO cells stably expressing GLP-1R; type: cell-based
[1] = Microsomal stability, human liver microsomes (predicted hepatic clearance); conditions: predicted from in vitro microsomal stability data
[2] = cAMP increase, CHO cells stably expressing GLP-1R, 10 point dose response, 30 minutes incubation, read-out: EC50

GLP-1R, sequence (P43220 24-463): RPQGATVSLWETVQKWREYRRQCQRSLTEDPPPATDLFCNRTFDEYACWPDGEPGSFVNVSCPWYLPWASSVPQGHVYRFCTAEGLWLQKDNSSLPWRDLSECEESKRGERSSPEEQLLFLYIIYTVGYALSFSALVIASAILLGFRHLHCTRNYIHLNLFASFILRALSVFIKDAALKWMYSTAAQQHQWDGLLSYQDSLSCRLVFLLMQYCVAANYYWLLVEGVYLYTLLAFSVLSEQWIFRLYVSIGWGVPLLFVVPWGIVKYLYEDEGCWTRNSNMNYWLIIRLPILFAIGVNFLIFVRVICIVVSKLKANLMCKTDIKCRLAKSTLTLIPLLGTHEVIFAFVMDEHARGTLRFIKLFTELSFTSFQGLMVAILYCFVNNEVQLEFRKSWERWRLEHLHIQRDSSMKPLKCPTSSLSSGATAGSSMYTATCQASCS

Structure (SMILES)	EC50 (GLP-1R; [2]) [nM]	Predicted Hepatic Clearance (Pred. Cl.) [1] [mL/min/kg]	EC50 (GLP-1R; EC50 (nM)) [nM]	EC50 (GLP-1R; read-out: EC50) [nM]
COCCn1c(Cc2c(F)cc(-c3cccnc3OC(C)c3ccc(Cl)cc3F)cc2F)nc2ccc(C(=O)O)cc21 (stereo not drawn) [Example 372, 2-(4-(2-(1-(4-chloro-2-fluorophenyl)ethoxy)pyridin-3-yl)-2,6-difluorobenzyl)-1-(2-methoxyethyl)-1H-benzo[d]imidazole-6-carboxylic acid]	243	7.83		
COCCn1c(Cc2ccc(-c3cccc(OCc4cccc(=O)n4C)n3)cc2F)nc2ccc(C(=O)O)cc21 [Example 373, 2-(2-fluoro-4-(6-((1-methyl-6-oxo-1,6-dihydropyridin-2-yl)methoxy)pyridin-2-yl)benzyl)-1-(2-methoxyethyl)-1H-benzo[d]imidazole-6-carboxylic acid]	4770	19.5		
COCCn1c(Cc2ccc(-c3cccc(OCc4cccn(C)c4=O)n3)cc2F)nc2ccc(C(=O)O)cc21 [Example 374, 2-(2-fluoro-4-(6-((1-methyl-2-oxo-1,2-dihydropyridin-3-yl)methoxy)pyridin-2-yl)benzyl)-1-(2-methoxyethyl)-1H-benzo[d]imidazole-6-carboxylic acid]	1930	6.5		
N#Cc1ccc(COc2cccc(-c3ccc(Cc4nc5ccc(C(=O)O)cc5n4CC4(CO)CC4)c(F)c3)n2)c(F)c1 [Example 375, 2-(4-(6-((4-cyano-2-fluorobenzyl)oxy)pyridin-2-yl)-2-fluorobenzyl)-1-((1-(hydroxymethyl)cyclopropyl)methyl)-1H-benzo[d]imidazole-6-carboxylic acid]	5.46	4.25		
N#CCC1(n2c(Cc3ccc(-c4cccc(OCc5ccc(C#N)cc5F)n4)cc3F)nc3ccc(C(=O)O)cc32)CC1 [Example 376, 2-(4-(6-((4-cyano-2-fluorobenzyl)oxy)pyridin-2-yl)-2-fluorobenzyl)-1-(1-(cyanomethyl)cyclopropyl)-1H-benzo[d]imidazole-6-carboxylic acid]	1.53	3.83		
COCC1(n2c(Cc3ccc(-c4cccc(OCc5ccc(C#N)cc5F)n4)cc3F)nc3ccc(C(=O)O)cc32)CC1 [Example 377, 2-(4-(6-((4-cyano-2-fluorobenzyl)oxy)pyridin-2-yl)-2-fluorobenzyl)-1-(1-(methoxymethyl)cyclopropyl)-1H-benzo[d]imidazole-6-carboxylic acid]	10.9	3.17		
COCCn1c(Cc2c(F)cc(-c3ccnc(OCc4ccc(C#N)cc4F)n3)cc2F)nc2ccc(C(=O)O)cc21 [Example 378, 2-(4-(2-((4-cyano-2-fluorobenzyl)oxy)pyrimidin-4-yl)-2,6-difluorobenzyl)-1-(2-methoxyethyl)-1H-benzo[d]imidazole-6-carboxylic acid]	12.4	5.5		
N#Cc1ccc(COc2cccc(-c3ccc(Cc4nc5ccc(C(=O)O)cc5n4CCCF)c(F)c3)n2)c(F)c1 [Example 379, 2-(4-(6-((4-cyano-2-fluorobenzyl)oxy)pyridin-2-yl)-2-fluorobenzyl)-1-(3-fluoropropyl)-1H-benzo[d]imidazole-6-carboxylic acid]	2.8	3.5		
COCC1(Cn2c(Cc3ccc(-c4cccc(OCc5ccc(C#N)cc5F)n4)cc3F)nc3ccc(C(=O)O)cc32)CC1 [Example 380, 2-(4-(6-((4-cyano-2-fluorobenzyl)oxy)pyridin-2-yl)-2-fluorobenzyl)-1-((1-(methoxymethyl)cyclopropyl)methyl)-1H-benzo[d]imidazole-6-carboxylic acid]	7.72	<1.83		
N#Cc1ccc(COc2cccc(-c3ccc(Cc4nc5ccc(C(=O)O)cc5n4C4(CF)CC4)c(F)c3)n2)c(F)c1 [Example 381, 2-(4-(6-((4-cyano-2-fluorobenzyl)oxy)pyridin-2-yl)-2-fluorobenzyl)-1-(1-(fluoromethyl)cyclopropyl)-1H-benzo[d]imidazole-6-carboxylic acid]	7.43	<1.83		
N#Cc1ccc(COc2cccc(-c3ccc(Cc4nc5ccc(C(=O)O)cc5n4CC4CCC4)c(F)c3)n2)c(F)c1 [Example 382, 2-(4-(6-((4-cyano-2-fluorobenzyl)oxy)pyridin-2-yl)-2-fluorobenzyl)-1-(cyclobutylmethyl)-1H-benzo[d]imidazole-6-carboxylic acid]	8.7	<1.83		
COCCn1c(Cc2ccc(-c3cccc(OCc4ccc(C#N)cc4F)n3)cc2NC(=O)OC)nc2ccc(C(=O)O)cc21 [Example 383, 2-(4-(6-((4-cyano-2-fluorobenzyl)oxy)pyridin-2-yl)-2-((methoxycarbonyl)amino)benzyl)-1-(2-methoxyethyl)-1H-benzo[d]imidazole-6-carboxylic acid]		8.67	123	
CC1(Cn2c(Cc3ccc(-c4cccc(OCc5ccc(C#N)cc5F)n4)cc3F)nc3ccc(C(=O)O)cc32)CCC1 [Example 384, 2-(4-(6-((4-cyano-2-fluorobenzyl)oxy)pyridin-2-yl)-2-fluorobenzyl)-1-((1-methylcyclobutyl)methyl)-1H-benzo[d]imidazole-6-carboxylic acid]	1.45	<1.83		
N#Cc1ccc(COc2cccc(-c3ccc(Cc4nc5ccc(C(=O)O)cc5n4CC4(C(F)F)CCC4)c(F)c3)n2)c(F)c1 [Example 385, 2-(4-(6-((4-cyano-2-fluorobenzyl)oxy)pyridin-2-yl)-2-fluorobenzyl)-1-((1-(difluoromethyl)cyclobutyl)methyl)-1H-benzo[d]imidazole-6-carboxylic acid]	1.34	5.33		
COCCn1c(Cc2ccc(-c3cccc(OCc4ccc(C#N)cc4F)n3)cc2F)nc2ccc(CC(=O)O)cc21 [Example 386, 2-(2-(4-(6-((4-cyano-2-fluorobenzyl)oxy)pyridin-2-yl)-2-fluorobenzyl)-1-(2-methoxyethyl)-1H-benzo[d]imidazol-6-yl)acetic acid]		2	157	
COCCn1c(Cc2ccc(-c3cccc(OCc4ccc(C#N)cc4F)n3)cc2S(C)(=O)=O)nc2ccc(C(=O)O)cc21 [Example 387, 2-(4-(6-((4-cyano-2-fluorobenzyl)oxy)pyridin-2-yl)-2-(methylsulfonyl)benzyl)-1-(2-methoxyethyl)-1H-benzo[d]imidazole-6-carboxylic acid]	504	8.3		
N#CCC1(Cn2c(Cc3ccc(-c4cccc(OCc5ccc(C#N)cc5F)n4)cc3C#N)nc3ccc(C(=O)O)cc32)CC1 [Example 388, 2-(2-cyano-4-(6-((4-cyano-2-fluorobenzyl)oxy)pyridin-2-yl)benzyl)-1-((1-(cyanomethyl)cyclopropyl)methyl)-1H-benzo[d]imidazole-6-carboxylic acid]	0.24	5.17		
N#Cc1ccc(COc2cccc(-c3ccc(Cc4nc5ccc(C(=O)O)cc5n4CC4CC4)c(F)c3)n2)c(F)c1 [Example 389, 2-(4-(6-((4-cyano-2-fluorobenzyl)oxy)pyridin-2-yl)-2-fluorobenzyl)-1-(cyclopropylmethyl)-1H-benzo[d]imidazole-6-carboxylic acid]	26.6	<1.83		
COCCCn1c(Cc2ccc(-c3cccc(OCc4ccc(C#N)cc4F)n3)cc2F)nc2ccc(C(=O)O)cc21 [Example 390, 2-(4-(6-((4-cyano-2-fluorobenzyl)oxy)pyridin-2-yl)-2-fluorobenzyl)-1-(3-methoxypropyl)-1H-benzo[d]imidazole-6-carboxylic acid]	26.4	7.5		
COCCn1c(Cc2ccc(-c3cccc(OCc4ccc(C#N)cc4F)n3)c(F)c2C#N)nc2ccc(C(=O)O)cc21 [Example 391, 2-(2-cyano-4-(6-((4-cyano-2-fluorobenzyl)oxy)pyridin-2-yl)-3-fluorobenzyl)-1-(2-methoxyethyl)-1H-benzo[d]imidazole-6-carboxylic acid]	≥ 1000	5.42		
N#Cc1ccc(COc2cccc(-c3ccc(Cc4nc5ccc(C(=O)O)cc5n4CCCO)c(F)c3)n2)c(F)c1 [Example 392, 2-(4-(6-((4-cyano-2-fluorobenzyl)oxy)pyridin-2-yl)-2-fluorobenzyl)-1-(3-hydroxypropyl)-1H-benzo[d]imidazole-6-carboxylic acid]	14.5	3.17		
N#Cc1ccc(COc2cccc(-c3ccc(Cc4nc5ccc(C(=O)O)cc5n4CC4(CF)CCC4)c(F)c3)n2)c(F)c1 [Example 393, 2-(4-(6-((4-cyano-2-fluorobenzyl)oxy)pyridin-2-yl)-2-fluorobenzyl)-1-((1-(fluoromethyl)cyclobutyl)methyl)-1H-benzo[d]imidazole-6-carboxylic]	33.5	5		
N#Cc1ccc(COc2cccc(-c3ccc(Cc4nc5ccc(C(=O)O)cc5n4CCC4(CF)CC4)c(F)c3)n2)c(F)c1 [Example 394, 2-(4-(6-((4-cyano-2-fluorobenzyl)oxy)pyridin-2-yl)-2-fluorobenzyl)-1-(2-(1-(fluoromethyl)cyclopropyl)ethyl)-1H-benzo[d]imidazole-6-carboxylic acid]	6.06	4.17		
N#Cc1ccc(COc2cccc(-c3ccc(Cc4nc5ccc(C(=O)O)cc5n4C[C@@H]4CCN4C4COC4)c(F)c3)n2)c(F)c1 [Example 395, (S)-2-(4-(6-((4-cyano-2-fluorobenzyl)oxy)pyridin-2-yl)-2-fluorobenzyl)-1-((1-(oxetan-3-yl)azetidin-2-yl)methyl)-1H-benzo[d]imidazole-6-carboxylic acid]		<1.83		42.3
